Experiment: recombinant barcode read abundance after kanamycin selection (control-corrected) (log10(CPM+1)); higher = more efficient recombination; sequences stand for … in AGTGCAGAGAAAATCGGCCAGTTTTCTCTGCCTGCAGTCCGCATGCCGT…AGATTTATGCAGCGGACTGCCTTTCTCCCAAAGTGATAAACCGGACAGTATCATGGACCGGTTTTCCCGGTAATCCGTATTTGCAAGGTTGGTTTCACT; site = the 11-nt target
Summary of the method: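 Recombination efficiency comes from barcode counts at recombinant junctions, converted to counts per million, averaged and corrected against the control. Values appear as log10(CPM+1). They were obtained from a pooled E. coli screen in which each oligo paired a target with an IS621 bridge RNA target-binding loop, and cells were plated in duplicate on chloramphenicol/ampicillin LB agar or on chloramphenicol/ampicillin/kanamycin with 0.1 mM IPTG.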
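Further: IS621 recombinase and bridge RNA in Escherichia coli cells.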

Sequence | recombinant barcode read abundance (log10)
GGTCCATCTTGGGTTCTAACCTGTTGCCT (site GGTCCATCTAG) | 0.161
GGTCCATCTTGGGTTCTAACCTGTTGCCT (site GTTCCATCTAG) | 0.165
GGTCCGGCTTGGGTTCTAACCTGTTGCGG (site GATCCGTCTCC) | 0.0623
GGTCCGGCTTGGGTTCTAACCTGTTGCGG (site GGTCCGGCTCC) | 1.61
GGTCCTGCTTGGGTTCTAACCTGTTGCCT (site AGTCCTGCTAG) | 0.366
GGTCCTGCTTGGGTTCTAACCTGTTGCCT (site CGTCCTGCTAG) | 0.0632
GGTCCTGCTTGGGTTCTAACCTGTTGCCT (site GGTCCTGCTAG) | 0.976
GGTCCTGCTTGGGTTCTAACCTGTTGCCT (site TGTCCTGCTAG) | 0.174
GGTCGACCTTGGGTTCTAACCTGTTGCCT (site AGTCGACCTAG) | 0.0754
GGTCGACCTTGGGTTCTAACCTGTTGCCT (site CGTCGACCTAG) | 0.0694
GGTCGACCTTGGGTTCTAACCTGTTGCCT (site GGTCGACCTAG) | 0.898
GGTCGACCTTGGGTTCTAACCTGTTGCCT (site TGTCGACCTAG) | 0.175
GGTCGCCCTTGGGTTCTAACCTGTTGCGT (site GGTCGCCCTAC) | 1.43
GGTCGCCCTTGGGTTCTAACCTGTTGCGT (site TCGTAGACTTA) | 0.0116
GGTCGGGCTTGGGTTCTAACCTGTTGCCT (site GGTCGAGCTAG) | 0.132
GGTCGGGCTTGGGTTCTAACCTGTTGCCT (site GGTCGCGCTAG) | 0.315
GGTCGGGCTTGGGTTCTAACCTGTTGCCT (site GGTCGGGCTAG) | 0.401
GGTCGGGCTTGGGTTCTAACCTGTTGCCT (site GGTCGTGCTAG) | 0.0723
GGTGGGTCTTGGGTTCTAACCTGTTGCGT (site GGTGGGTCTAA) | 0.97
GGTGGGTCTTGGGTTCTAACCTGTTGCGT (site GGTGGGTCTAC) | 3.03
GGTGGGTCTTGGGTTCTAACCTGTTGCGT (site GGTGGGTCTAG) | 1.1
GGTGGGTCTTGGGTTCTAACCTGTTGCGT (site GGTGGGTCTAT) | 1.93

Sequence | recombinant barcode read abundance (log10)
GGTTACACTTGGGTTCTAACCTGTTGCCT (site GGATACACTAG) | 0.0395
GGTTACACTTGGGTTCTAACCTGTTGCCT (site GGTTACACTAG) | 1.26
GGTTGTTCTTGGGTTCTAACCTGTTGCCT (site GGTTGTTCTAG) | 0.19
GGTTGTTCTTGGGTTCTAACCTGTTGCCT (site TGTTGTTCTAG) | 0.0976
GTAAACACTTGGGTTCTAACCTGTTGCAG (site GTAAACACTCT) | 0.514
GTAAACACTTGGGTTCTAACCTGTTGCAG (site GTAGACACTCG) | 0.113
GTAACCTCTTGGGTTCTAACCTGTTGCTC (site GTAACCTCTGA) | 2.05
GTAACCTCTTGGGTTCTAACCTGTTGCTC (site GTCACCTCTTA) | 0.00986
GTAACTACTTGGGTTCTAACCTGTTGCTC (site ACGTAACCTAG) | 0.0897
GTAACTACTTGGGTTCTAACCTGTTGCTC (site GTAACTACTGA) | 0.475
GTAAGAACTTGGGTTCTAACCTGTTGCTT (site GTAAGAACTAA) | 0.629
GTAAGAACTTGGGTTCTAACCTGTTGCTT (site GTAAGCACTAA) | 0.0763
GTAAGAACTTGGGTTCTAACCTGTTGCTT (site GTAAGGACTAA) | 0.0891
GTAAGAACTTGGGTTCTAACCTGTTGCTT (site GTAAGTACTAA) | 0.03
GTAAGCACTTGGGTTCTAACCTGTTGCTT (site GTAAGAACTAA) | 0.0561
GTAAGCACTTGGGTTCTAACCTGTTGCTT (site GTAAGCACTAA) | 0.18
GTAAGCACTTGGGTTCTAACCTGTTGCTT (site GTAAGGACTAA) | 0.0207
GTAAGCACTTGGGTTCTAACCTGTTGCTT (site GTAAGTACTAA) | 0.242
GTAAGCTCTTGGGTTCTAACCTGTTGCCT (site ATAAGCTCTAG) | 1.34
GTAAGCTCTTGGGTTCTAACCTGTTGCCT (site CTAAGCTCTAG) | 0.349
GTAAGCTCTTGGGTTCTAACCTGTTGCCT (site GTAAGCTCTAG) | 2.15
GTAAGCTCTTGGGTTCTAACCTGTTGCCT (site TTAAGCTCTAG) | 0.932

Sequence | recombinant barcode read abundance (log10)
GTAAGTACTTGGGTTCTAACCTGTTGCGG (site AGAAGTACTCC) | 0
GTAAGTACTTGGGTTCTAACCTGTTGCGG (site GTAAGTACTCC) | 2.06
GTACAAGCTTGGGTTCTAACCTGTTGCCT (site AGGAGTCCTCT) | 0.102
GTACAAGCTTGGGTTCTAACCTGTTGCCT (site GTACAAGCTAG) | 1.08
GTACCGCCTTGGGTTCTAACCTGTTGCCT (site GTACAGCCTAG) | 0.483
GTACCGCCTTGGGTTCTAACCTGTTGCCT (site GTACCGCCTAG) | 1.01
GTACCGCCTTGGGTTCTAACCTGTTGCCT (site GTACGGCCTAG) | 0.122
GTACCGCCTTGGGTTCTAACCTGTTGCCT (site GTACTGCCTAG) | 0.29
GTACCTTCTTGGGTTCTAACCTGTTGCCT (site GGAGCTTCTAG) | 0.0858
GTACCTTCTTGGGTTCTAACCTGTTGCCT (site GTACCTTCTAG) | 1.08
GTACGATCTTGGGTTCTAACCTGTTGCAA (site GTACGATCTTT) | 0.962
GTACGATCTTGGGTTCTAACCTGTTGCAA (site GTACGGTCTAT) | 0.291
GTACGATCTTGGGTTCTAACCTGTTGCGG (site CCTTCTCCTAT) | 0.0115
GTACGATCTTGGGTTCTAACCTGTTGCGG (site GTACGATCTCC) | 0.753
GTACGGCCTTGGGTTCTAACCTGTTGCCT (site GTACAGCCTAG) | 0.453
GTACGGCCTTGGGTTCTAACCTGTTGCCT (site GTACCGCCTAG) | 0.0984
GTACGGCCTTGGGTTCTAACCTGTTGCCT (site GTACGGCCTAG) | 0.319
GTACGGCCTTGGGTTCTAACCTGTTGCCT (site GTACTGCCTAG) | 0.0887
GTACTCTCTTGGGTTCTAACCTGTTGCCA (site GAACTGTCTTG) | 0.143
GTACTCTCTTGGGTTCTAACCTGTTGCCA (site GTACTCTCTTG) | 1.38
GTAGCACCTTGGGTTCTAACCTGTTGCTT (site GTAGCACCTAA) | 1.72
GTAGCACCTTGGGTTCTAACCTGTTGCTT (site GTATGACCTAA) | 0.323

Sequence | recombinant barcode read abundance (log10)
GTAGGTCCTTGGGTTCTAACCTGTTGCCG (site GTAGGTCCTCG) | 2.48
GTAGGTCCTTGGGTTCTAACCTGTTGCCG (site TACAACACTAC) | 0.0369
GTAGTAACTTGGGTTCTAACCTGTTGCCT (site GTAGTAACTAG) | 2.12
GTAGTAACTTGGGTTCTAACCTGTTGCCT (site GTAGTACCTAG) | 0.104
GTAGTAACTTGGGTTCTAACCTGTTGCCT (site GTAGTAGCTAG) | 0.206
GTAGTAACTTGGGTTCTAACCTGTTGCCT (site GTAGTATCTAG) | 0.0374
GTAGTTCCTTGGGTTCTAACCTGTTGCCT (site GTAGTTCCTAG) | 1.6
GTAGTTCCTTGGGTTCTAACCTGTTGCCT (site GTCGTTCCTAG) | 0.0557
GTATACCCTTGGGTTCTAACCTGTTGCCA (site GTATACCCTAT) | 0.498
GTATACCCTTGGGTTCTAACCTGTTGCCA (site GTATACCCTTG) | 1.27
GTATATACTTGGGTTCTAACCTGTTGCCT (site GTATATACTAG) | 0.902
GTATATACTTGGGTTCTAACCTGTTGCCT (site GTCTATACTAG) | 0.112
GTATATACTTGGGTTCTAACCTGTTGCCT (site GTGTATACTAG) | 0.241
GTATATACTTGGGTTCTAACCTGTTGCCT (site GTTTATACTAG) | 0.00506
GTATCAGCTTGGGTTCTAACCTGTTGCCT (site GTATCAACTAG) | 0.181
GTATCAGCTTGGGTTCTAACCTGTTGCCT (site GTATCACCTAG) | 0.226
GTATCAGCTTGGGTTCTAACCTGTTGCCT (site GTATCAGCTAG) | 1.25
GTATCAGCTTGGGTTCTAACCTGTTGCCT (site GTATCATCTAG) | 0.0176
GTATGAACTTGGGTTCTAACCTGTTGCCT (site GTATGAACTAG) | 1.44
GTATGAACTTGGGTTCTAACCTGTTGCCT (site GTATGACCTAG) | 0.121
